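Values below derive from 48-hour exposures of cells grown in 96-well plates, with endpoints linearly interpolated between the two concentrations bracketing the appropriate inhibition level. GI50 is the concentration that inhibits growth by half.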 The source made the active and inactive calls. Rule as the data show it: active = GI50 up to about 1.1 µM and inactive = higher. Non-standard residues stand in square brackets, D forms with d. Residues, ends and D or L forms follow the SMILES beside them. *: point of attachment. Ac5c = NC1(C(=O)O)CCCC1; Cbz = O=C(OCc1ccccc1)*; Boc = CC(C)(C)OC(=O)*; tBu = CC(C)(C)*
Key:
Experiment in all cases: NCI anticancer screen, dose series, 48 h
CAKI-1 = tested on: CAKI-1
CCRF-CEM = tested on: CCRF-CEM
HCT-116 = tested on: HCT-116
IGROV-1 = tested on: IGROV-1
K562 = tested on: K562
M14 = tested on: M14
MCF7 = tested on: MCF7
NCI-H226 = tested on: NCI-H226
NCI-H460 = tested on: NCI-H460
RPMI-8226 = tested on: RPMI-8226
RXF 393 = tested on: RXF 393
SF-295 = tested on: SF-295
SF-539 = tested on: SF-539
SK-MEL-28 = tested on: SK-MEL-28
SR = tested on: SR
SW-620 = tested on: SW-620
T47D = tested on: T47D
TK-10 = tested on: TK-10
UACC-257 = tested on: UACC-257
UO-31 = tested on: UO-31

Structure (SMILES) | GI50 (CAKI-1) | GI50 (CCRF-CEM) | GI50 (HCT-116) | GI50 (IGROV-1) | GI50 (K562) | GI50 (M14) | GI50 (MCF7) | GI50 (NCI-H226) | GI50 (NCI-H460) | GI50 (RPMI-8226) | GI50 (RXF 393) | GI50 (SF-295) | GI50 (SF-539) | GI50 (SK-MEL-28) | GI50 (SR) | GI50 (SW-620) | GI50 (T47D) | GI50 (TK-10) | GI50 (UACC-257) | GI50 (UO-31)
C/C(=N\NC(=S)N1CCN(C2CCCCCC2)CC1)c1ccccn1 | 0.037 µM (active) | 0.01 µM (active) | 0.01 µM (active) | 0.01 µM (active) | 0.01 µM (active) | 0.01 µM (active) | 0.01 µM (active) | 0.0655 µM (active) | 0.01 µM (active) | 0.01 µM (active) | 0.212 µM (active) | < 0.0476 µM (active) | 0.0927 µM (active) | 0.238 µM (active) | 0.01 µM (active) | 0.01 µM (active) | 0.01 µM (active) | 0.74 µM (active) | 0.01 µM (active) | 0.1 µM (active)
NC12Oc3cc(O)cc(O)c3C1(c1ccc(Cl)cc1)c1c(O)cc(O)cc1O2 (stereo not given) | > 100 µM (inactive) | 37.7 µM (inactive) | 46 µM (inactive) | 41.7 µM (inactive) | 30.8 µM (inactive) | > 100 µM (inactive) | 59.8 µM (inactive) | > 100 µM (inactive) | 34.6 µM (inactive) | 33.4 µM (inactive) | 32.3 µM (inactive) | 96.8 µM (inactive) | 42.8 µM (inactive) | 61.2 µM (inactive) | 22.5 µM (inactive) | > 100 µM (inactive) | > 100 µM (inactive) | 66.8 µM (inactive) | 79.1 µM (inactive) | 92.5 µM (inactive)
Cc1ccc(CN2CCN(Cc3ccc(C)o3)C(C)C2)o1 (stereo not given) | > 100 µM (inactive) | > 100 µM (inactive) | > 100 µM (inactive) | > 100 µM (inactive) | > 100 µM (inactive) | > 100 µM (inactive) | > 100 µM (inactive) | > 100 µM (inactive) | > 100 µM (inactive) | > 100 µM (inactive) | > 100 µM (inactive) | > 100 µM (inactive) | > 100 µM (inactive) | > 100 µM (inactive) | > 100 µM (inactive) | > 100 µM (inactive) | > 100 µM (inactive) | > 100 µM (inactive) | > 100 µM (inactive) | > 100 µM (inactive)
COCC1OC(OC2C3=C(C(C)C)CCC3(C)/C=C3\C(CCC3(O)COC)C(C)C2O)C(O)C2OC3OC12OC3(C)C1CO1 (stereo not given) | 21.8 µM (inactive) | 24.3 µM (inactive) | 34 µM (inactive) | 37.8 µM (inactive) | 25.1 µM (inactive) | 43.2 µM (inactive) | 45.5 µM (inactive) | 16.3 µM (inactive) | 32.7 µM (inactive) | 27.2 µM (inactive) | 21.2 µM (inactive) | 31.7 µM (inactive) | 24.8 µM (inactive) | 31.6 µM (inactive) | 41.8 µM (inactive) | 34.4 µM (inactive) | 29.4 µM (inactive) | 29.9 µM (inactive) | 40.3 µM (inactive) | 16.4 µM (inactive)
CC(C)CC(C(N)=O)C(=O)NC(Cc1ccccc1)NC(=O)CNC(=O)C(C)NC(=O)C(N)Cc1ccc(O)cc1 (stereo not given) | > 100 µM (inactive) | > 100 µM (inactive) | > 100 µM (inactive) | > 100 µM (inactive) | > 100 µM (inactive) | > 100 µM (inactive) | > 100 µM (inactive) | > 100 µM (inactive) | > 100 µM (inactive) | > 100 µM (inactive) | > 100 µM (inactive) | > 100 µM (inactive) | > 100 µM (inactive) | > 100 µM (inactive) | > 100 µM (inactive) | > 100 µM (inactive) | > 100 µM (inactive) | > 100 µM (inactive) | > 100 µM (inactive) | > 100 µM (inactive)
COc1cc2c(cc1OCCCC(=O)Nc1cc(C(=O)Nc3cc(C(=O)Nc4cc(C(=O)NCCCN(C)C)n(C)n4)n(C)c3)n(C)c1)N=CC1CCCN1C2=O (stereo not given) | 25.1 µM (inactive) | 4.31 µM (inactive) | 51.4 µM (inactive) | 6.38 µM (inactive) | 5.2 µM (inactive) | 24.3 µM (inactive) | 16.8 µM (inactive) | 25.1 µM (inactive) | 25.9 µM (inactive) | 25.7 µM (inactive) | 19.8 µM (inactive) | 31.4 µM (inactive) | 23.1 µM (inactive) | 17.1 µM (inactive) | 3.76 µM (inactive) | 20.6 µM (inactive) | 48.5 µM (inactive) | 21 µM (inactive) | 19.7 µM (inactive) | 22.2 µM (inactive)
COC(=O)C1(NC(=O)C(Cc2ccccc2)NC(=O)C(NC(=O)C(CCCCNC(=O)OC(C)(C)C)NC(=O)C(Cc2c[nH]c3ccccc23)NC(=O)C(Cc2ccccc2)NC(=O)OCc2ccccc2)C(C)OC(C)(C)C)CCCC1 (stereo not given) (Cbz-FWK(Boc)T(tBu)F[Ac5c]-OMe; configuration not given here) | > 100 µM (inactive) | 98.9 µM (inactive) | > 100 µM (inactive) | 88.1 µM (inactive) | > 100 µM (inactive) | 18.9 µM (inactive) | > 100 µM (inactive) | > 100 µM (inactive) | > 100 µM (inactive) | > 100 µM (inactive) | > 100 µM (inactive) | > 100 µM (inactive) | > 10 µM (inactive) | > 100 µM (inactive) | > 100 µM (inactive) | 51.6 µM (inactive) | 24.6 µM (inactive) | > 100 µM (inactive) | > 100 µM (inactive) | > 100 µM (inactive)
CC1CC(C)(O)CC(C(O)CC2CC(=O)NC(=O)C2)C1=O (stereo not given) [RESACTIN A] | < 0.01 µM (active) | < 0.014 µM (active) | 0.0308 µM (active) | 0.0292 µM (active) | 0.0309 µM (active) | 0.034 µM (active) | 0.0379 µM (active) | 0.0689 µM (active) | 0.0385 µM (active) | 0.0456 µM (active) | 0.0344 µM (active) | < 0.0149 µM (active) | 0.0197 µM (active) | 0.0478 µM (active) | 0.0251 µM (active) | 0.0294 µM (active) | 0.0431 µM (active) | 0.187 µM (active) | 0.0541 µM (active) | 0.055 µM (active)
